One assay deals with T1, MALT1 (Homo sapiens, UniProt Q9UDY8).
T1 construct: Avi-tagged FL MALT-1 (Pharmaron, stored at −70° C.); Avi tag
T1 sequence (Q9UDY8 1-824): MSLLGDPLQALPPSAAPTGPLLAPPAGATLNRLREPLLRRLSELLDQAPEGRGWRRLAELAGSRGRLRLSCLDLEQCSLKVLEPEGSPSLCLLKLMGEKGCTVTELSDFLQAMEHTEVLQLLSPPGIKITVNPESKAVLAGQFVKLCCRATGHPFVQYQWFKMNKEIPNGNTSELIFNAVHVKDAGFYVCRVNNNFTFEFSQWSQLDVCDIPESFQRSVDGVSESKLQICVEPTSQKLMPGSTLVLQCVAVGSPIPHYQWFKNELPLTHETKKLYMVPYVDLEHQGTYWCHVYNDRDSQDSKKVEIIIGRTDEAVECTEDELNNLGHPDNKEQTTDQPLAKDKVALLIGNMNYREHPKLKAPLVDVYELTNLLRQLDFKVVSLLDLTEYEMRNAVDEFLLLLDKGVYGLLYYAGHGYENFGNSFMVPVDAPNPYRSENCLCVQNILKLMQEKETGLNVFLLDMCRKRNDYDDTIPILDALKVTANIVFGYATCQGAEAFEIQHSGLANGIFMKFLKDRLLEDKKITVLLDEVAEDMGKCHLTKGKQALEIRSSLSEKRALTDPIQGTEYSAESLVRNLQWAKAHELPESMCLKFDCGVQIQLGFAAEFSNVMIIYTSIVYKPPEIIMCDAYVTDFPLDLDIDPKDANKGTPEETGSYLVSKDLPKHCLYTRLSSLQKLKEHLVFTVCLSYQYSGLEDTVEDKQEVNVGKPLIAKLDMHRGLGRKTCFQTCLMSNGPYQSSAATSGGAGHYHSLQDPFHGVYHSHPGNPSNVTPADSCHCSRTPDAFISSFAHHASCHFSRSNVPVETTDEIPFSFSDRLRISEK
As to the kind of experiment: MALT-1 Fluorogenic Peptide Cleavage Assay (MALT1 inhibition assay). The class given is biochemical. Particulars: Avi-tagged FL MALT-1, Ac-LRSR-AMC peptide substrate, 30 min pre-incubation, 90 min reaction. As for the experimental part: Inhibition of MALT1 activity by the presence of small molecules was evaluated using MALT-1 Fluorogenic Peptide Cleavage Assay. The assay utilizes a quenched AMC-labelled peptide that contains the MALT-1 recognition sequence and cleavage site (LRSR). MALT-1 mediated cleavage of the peptide relieves the quenching and leads to an increase in fluorescence at excitation (342 nm) and emission (441 nm). The following reagents were obtained commercially and used to prepare standard reagent formulations as further described below: […] The standard reagent formulations used in this assay were prepared and stored as follows. A 1.1 M solution of sodium citrate (161.3 g, 500 mL) was prepared and stored at room temperature. A 10% (w/v) CHAPS solution (2.0 g, 20 mL) was prepared and stored at 4° C. A 500 mM HEPES solution having pH of 6.89 was prepared from 200 mL of a 1 M HEPES solution having a pH of 7.5 using concentrated hydrochloric acid and brought to a final volume of 400 mL with […]® H2O. The substrate, 10 mM Ac-LRSR-AMC Peptide, was prepared (10 mg, 1.370 mL DMSO) and stored at -20° C. Compounds were plated to provide a 2% DMSO final concentration using a ProxiPlate-384 Plus F Black 384-shallow well microplate. The assay-ready plates were equilibrated to room temperature. […] DMSO was added only when compound plates had not been DMSO-backfilled to 2%. MALT-1 was thawed and kept on ice. Peptide substrate was thawed on the bench under ambient conditions. A MALT-1 enzyme working stock was prepared from Avi-tagged FL MALT-1 (40 nM in a prepared reagent volume of 16.5 μL) and the reaction buffer (13.0 mL). MALT1 working stock (5 μL) was added to each well of the microplate. MALT-1 was pre-incubated with compounds for 30 minutes at room temperature. […] The plates were covered and incubated on the bench at room temperature for 90 minutes. Fluorescence intensity was determined using a CLARIOstar microplate reader (BMG LABTECH) using the optimised AMC mode. Before taking readings, a 70% gain was applied on the neutral control well. Compound data were normalised to % Inhibition and used to plot sigmoidal concentration response curves to yield various parameters including IC50. […] Compounds in which an IC50 was not measured are designated as “N/A”.

A further assay relates to NF-kB. The experiment in a line: NF-kB reporter assay in Jurkat cells stimulated with aCD3/aCD28/PMA. Particulars: Homo sapiens, Jurkat, Jurkat cells, 1 hr compound incubation, aCD3/aCD28/PMA stimulation 4 hr, One-Glo readout; read-out: NF-kB Reporter Assay IC50. The class given is cell-based. As for the experimental part:
Jurkat cells were maintained in complete RPMI 1640 media supplemented with 10% FBS. Prior to the assay, 120 nL of the serial diluted compound was added in each well of 384-well flat bottom white plate (Corning #3570) by using liquid handler Echo550. Jurkat cells were harvested by centrifugation at 120 g for 10 min and resuspended in fresh RPMI 1640 media without serum. 30 μL of cells (25,000 cells) were seeded in each well of 384-well plate containing compound. After 1 hr incubation at 37° C. in a 5% CO2 incubator, 10 μL of diluted aCD3/aCD28/PMA (final concentration at 5 μg/mL, 5 μg/mL and 0.03 μg/mL, respectively) in RPMI 1640 without serum were added to each well. After incubation at 37° C. in 5% CO2 for 4 hr, 30 μL of One-Glo reagent (Promega #E6120) was added into each well. The plate was left at room temperature for 5 min and the signal was measured on EnVision (PerkinElmer).
Compounds in which an IC50 was not measured are designated as “N/A”.

By IC50 is commonly meant the concentration needed to halve the response being measured.

Molecules are shown by their SMILES.

As to `Cn1ncc2cccc(NS(=O)(=O)c3ccc(-n4cc(C(F)(F)F)cn4)nc3)c21` [Example I-23, N-(1-Methyl-1H-Indazol-7-yl)-6-(4-(Trifluoromethyl)-1H-Pyrazol-1-yl)Pyridine-3-Sulfonamide], the IC50 at MALT1 is 400 to 1000 nM; in the assay with NF-kB, less than 400 nM.

`Cc1n[nH]c2cccc(NS(=O)(=O)c3ccc(-n4cc(C(F)(F)F)cn4)nc3)c12` [Example I-24, N-(3-Methyl-1H-Indazol-4-yl)-6-(4-(Trifluoromethyl)-1H-Pyrazol-1-yl)Pyridine-3-Sulfonamide]: the IC50 is 1000 to 2500 nM at MALT1 and less than 400 nM in the assay on NF-kB.

For the compound `Cn1cc2ccc(Cl)c(NS(=O)(=O)c3ccc(-n4cc(C(F)(F)F)cn4)nc3)c2n1` [Example I-25, N-(6-Chloro-2-Methyl-2H-Indazol-7-yl)-6-(4-(Trifluoromethyl)-1H-Pyrazol-1-yl)Pyridine-3-Sulfonamide], the IC50 against MALT1 is 1000 to 2500 nM; in the assay on NF-kB it was greater than 2500 nM.

Turning to `CCc1ccc2cn(C)nc2c1NS(=O)(=O)c1ccc(-n2cc(C(F)(F)F)cn2)nc1` [Example I-26, N-(6-Ethyl-2-Methylindazol-7-yl)-6-[4-(Trifluoromethyl)Pyrazol-1-yl]pyridine-3-Sulfonamide], the IC50 is less than 400 nM against MALT1 and greater than 2500 nM in the assay with NF-kB.

For `COc1ccc2cn(C)nc2c1NS(=O)(=O)c1ccc(-n2cc(C(F)(F)F)cn2)nc1` [Example I-27, N-(6-Methoxy-2-Methylindazol-7-yl)-6-[4-(Trifluoromethyl)Pyrazol-1-yl]pyridine-3-Sulfonamide], the IC50 is less than 400 nM against MALT1 and 1000 to 2500 nM in the assay on NF-kB.

`COc1ccc2cnn(C)c2c1NS(=O)(=O)c1ccc(-n2ncc(C(F)(F)F)n2)nc1` [Example I-28, N-(6-Methoxy-1-Methyl-1H-Indazol-7-yl)-6-(4-(Trifluoromethyl)-2H-1,2,3-Triazol-2-yl)Pyridine-3-Sulfonamide]: the half-maximal inhibitory concentration (IC50) is 400 to 1000 nM on MALT1 and less than 400 nM in the assay on NF-kB.

For `COc1ccc2cnn(C)c2c1NS(=O)(=O)c1ccc(-n2cc(C(F)(F)F)nn2)nc1` [Example I-29, N-(6-Methoxy-1-Methyl-1H-Indazol-7-yl)-6-(4-(Trifluoromethyl)-1H-1,2,3-Triazol-1-yl)Pyridine-3-Sulfonamide], the IC50 against MALT1 and in the assay on NF-kB was less than 400 nM in each case.

With `COc1ccc2cnn(C)c2c1N(C)S(=O)(=O)c1ccc(-n2ccc(C(F)(F)F)n2)nc1` [Example I-30, N-(6-Methoxy-1-Methylindazol-7-yl)-N-Methyl-6-[3-(Trifluoromethyl) Pyrazol-1-yl] Pyridine-3-Sulfonamide], the IC50 at MALT1 and with NF-kB was less than 400 nM throughout.

As for `Cc1ccc2cnn(C)c2c1NS(=O)(=O)c1ccc(-n2cc(C(F)(F)F)cn2)nc1` [Example I-31, N-(1,6-Dimethyl-1H-Indazol-7-yl)-6-(4-(Trifluoromethyl)-1H-Pyrazol-1-yl)Pyridine-3-Sulfonamide], the IC50 on MALT1 and in the assay on NF-kB was less than 400 nM in each case.

Regarding `COc1ccc2cnn(C)c2c1NS(=O)(=O)c1ccc(-n2cc(C(C)C)cn2)nc1` [Example I-32, 6-(4-Isopropyl-1H-Pyrazol-1-yl)-N-(6-Methoxy-1-Methyl-1H-Indazol-7-yl)Pyridine-3-Sulfonamide], the IC50 at MALT1 and in the assay on NF-kB was less than 400 nM each time.

As to `CCc1ccc2cnn(C)c2c1NS(=O)(=O)c1ccc(-n2ccc(C)n2)nc1` [Example I-33, N-(6-Ethyl-1-Methyl-1H-Indazol-7-yl)-6-(3-Methyl-1H-Pyrazol-1-yl)Pyridine-3-Sulfonamide], the IC50 against MALT1 and with NF-kB was less than 400 nM throughout.

In the case of `Cc1ccn(-c2ccc(S(=O)(=O)Nc3c(C)ccc4cnn(C)c34)cn2)n1` [Example I-34, N-(1,6-dimethyl-1H-indazol-7-yl)-6-(3-methyl-1H-pyrazol-1-yl)pyridine-3-sulfonamide], the IC50 against MALT1 is less than 400 nM; in the assay with NF-kB it was 400 to 1000 nM.

For the compound `COc1cnn(-c2ccc(S(=O)(=O)Nc3cccc4cnn(C)c34)cn2)c1` [Example I-35, 6-(4-Methoxy-1H-Pyrazol-1-yl)-N-(1-Methyl-1H-Indazol-7-yl)Pyridine-3-Sulfonamide], the IC50 was greater than 2500 nM at MALT1 and less than 400 nM with NF-kB.

With `CC(C)c1ccn(-c2ccc(S(=O)(=O)Nc3cccc4cnn(C)c34)cn2)n1` [Example I-36, 6-(3-Isopropyl-1H-Pyrazol-1-yl)-N-(1-Methyl-1H-Indazol-7-yl)Pyridine-3-Sulfonamide], the IC50 at MALT1 was greater than 2500 nM; in the assay with NF-kB, less than 400 nM.

For the compound `Cc1ncn(-c2ccc(S(=O)(=O)Nc3cccc4cnn(C)c34)cn2)n1` [Example I-37, 6-(3-Methyl-1H-1,2,4-Triazol-1-yl)-N-(1-Methyl-1H-Indazol-7-yl)Pyridine-3-Sulfonamide], the IC50 at MALT1 was greater than 2500 nM; in the assay on NF-kB, 1000 to 2500 nM.

Regarding `Cn1ncc2cccc(NS(=O)(=O)c3ccc(-n4cc(F)cn4)nc3)c21` [Example I-38, 6-(4-Fluoro-1H-Pyrazol-1-yl)-N-(1-Methyl-1H-Indazol-7-yl) Pyridine-3-Sulfonamide], the results for the IC50 at MALT1 and with NF-kB were 1000 to 2500 nM and less than 400 nM, respectively.

For the compound `Cn1ncc2cccc(NS(=O)(=O)c3ccc(-n4cc(C#N)cn4)nc3)c21` [Example I-39, 6-(4-Cyano-1H-Pyrazol-1-yl)-N-(1-Methyl-1H-Indazol-7-yl)Pyridine-3-Sulfonamide], the IC50 at MALT1 is greater than 2500 nM; in the assay with NF-kB, 400 to 1000 nM.

In the case of `Cc1cc(C)n(-c2ccc(S(=O)(=O)Nc3cccc4cnn(C)c34)cn2)n1` [Example I-40, 6-(3,5-Dimethyl-1H-Pyrazol-1-yl)-N-(1-Methyl-1H-Indazol-7-yl)Pyridine-3-Sulfonamide], the results for the IC50 at MALT1 and in the assay on NF-kB were greater than 2500 nM and less than 400 nM, respectively.

Take `Cn1ncc2cccc(NS(=O)(=O)c3ccc(-n4cc([N+](=O)[O-])cn4)nc3)c21` [Example I-41, N-(1-Methylindazol-7-yl)-6-(4-Nitropyrazol-1-yl)Pyridine-3-Sulfonamide]: the concentration for half-maximal inhibition (IC50) against MALT1 is less than 400 nM; in the assay with NF-kB, 400 to 1000 nM.

Regarding `Cc1nn(-c2ccc(S(=O)(=O)Nc3cccc4cnn(C)c34)cn2)c(C)c1Cl` [Example I-42, 6-(4-Chloro-3,5-Dimethyl-1H-Pyrazol-1-yl)-N-(1-Methyl-1H-Indazol-7-yl) Pyridine-3-Sulfonamide], the IC50 against MALT1 was greater than 2500 nM; in the assay with NF-kB, less than 400 nM.
